Assay results published in the supplement of paper PMC10307832.

Key:
Assay in all cases: relative viability (nuclei count vs DMSO), 5 days (fraction); higher = more cells survive
[1] = compound: COc1nc(N)nc2c1ncn2[C@@H]1O[C@H](CO)[C@@H](O)[C@@H]1O [Nelarabine] + Cc1cc(Nc2cc(N3CCN(C)CC3)nc(Sc3ccc(NC(=O)C4CC4)cc3)n2)n[nH]1 [Tozasertib] (partner 0.1 µM)
Method in brief: (§1)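 Lung cancer cell lines, seeded in 1536-well plates, were treated the following day by pin tool with a single drug or with five library-drug doses (not always all listed) in √10 steps on top of a fixed anchor-drug dose. Cells were fixed and nuclei stained in one step after 5 days, and nuclei were counted. Relative viability is the nuclei count for treated wells divided by that for vehicle wells, reported as medians of duplicate plates.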

[2] = compound: COc1nc(N)nc2c1ncn2[C@@H]1O[C@H](CO)[C@@H](O)[C@@H]1O [Nelarabine] + O=C(CCCCCCC(=O)Nc1ccccc1)NO [Vorinostat] (partner 1 µM)
Method in brief: as §1

[3] = compound: C=CCn1c(=O)c2cnc(Nc3ccc(N4CCN(C)CC4)cc3)nc2n1-c1cccc(C(C)(C)O)n1 [Adavosertib] + Nc1ncn([C@H]2C[C@H](O)[C@@H](CO)O2)c(=O)n1 [Decitabine] (partner 2 µM)
Method in brief: as §1

[4] = compound: C=CCn1c(=O)c2cnc(Nc3ccc(N4CCN(C)CC4)cc3)nc2n1-c1cccc(C(C)(C)O)n1 [Adavosertib] + C[C@@H](Oc1cc(-c2cnn(C3CCNCC3)c2)cnc1N)c1c(Cl)ccc(F)c1Cl [Crizotinib] (partner 1 µM)
Method in brief: as §1

Row | Cell Line | relative viability ([1]; first compound 0.01 µM) | relative viability ([1]; first compound 0.03162 µM) | relative viability ([1]; first compound 0.1 µM) | relative viability ([1]; first compound 0.3162 µM) | relative viability ([1]; first compound 1 µM) | relative viability ([2]; first compound 0.01 µM) | relative viability ([2]; first compound 0.03162 µM) | relative viability ([2]; first compound 0.1 µM) | relative viability ([2]; first compound 0.3162 µM) | relative viability ([2]; first compound 1 µM) | relative viability ([3]; first compound 0.01 µM) | relative viability ([3]; first compound 0.03162 µM) | relative viability ([3]; first compound 0.1 µM) | relative viability ([3]; first compound 0.3162 µM) | relative viability ([4]; first compound 0.01 µM) | relative viability ([4]; first compound 0.03162 µM) | relative viability ([4]; first compound 0.1 µM) | relative viability ([4]; first compound 0.3162 µM)
1 | A-427 | 0.181 | 0.204 | 0.169 | 0.175 | 0.181 | 0.856 | 0.93 | 0.895 | 0.854 | 0.844 | 0.53 | 0.554 | 0.55 | 0.469 | 0.972 | 0.931 | 1.02 | 0.962
2 | NCI-H1651 | 0.944 | 0.767 | 0.689 | 0.674 | 0.685 | 0.487 | 0.591 | 0.525 | 0.566 | 0.553 | 0.578 | 0.681 | 0.603 | 0.525 | 0.836 | 0.882 | 0.897 | 0.899
3 | IA-LM |  |  |  |  |  | 1.11 | 1 | 0.854 | 1.11 | 0.884 |  |  |  |  | 0.868 |  | 1.02 | 0.784
4 | SK-LU-1 | 0.307 | 0.198 | 0.298 | 0.323 | 0.332 | 0.789 | 0.585 | 0.924 | 0.94 | 0.845 | 0.616 | 0.64 | 0.631 | 0.461 | 0.837 | 0.844 | 0.553 | 0.325
5 | Calu-6 |  |  |  |  |  |  |  |  |  |  |  |  |  |  | 0.777 | 0.746 | 0.916 | 0.343
6 | BEN | 0.566 | 0.495 | 0.551 | 0.546 | 0.452 | 0.662 | 0.575 | 0.592 | 0.609 | 0.618 | 0.684 | 0.69 | 0.768 | 0.783 | 0.985 | 0.998 | 0.825 | 0.873
7 | NCI-H2228 | 0.226 | 0.163 |  | 0.245 | 0.214 | 0.634 | 0.569 | 0.387 | 0.495 | 0.792 |  |  |  |  | 0.391 | 0.458 | 0.615 | 0.3
8 | NCI-H1395 | 0.839 | 0.67 | 0.814 | 0.729 | 0.657 | 0.757 | 0.706 | 1.16 | 0.755 | 0.666 | 0.702 | 0.754 | 0.781 | 0.62 |  |  |  | 
9 | NCI-H1792 |  |  |  |  |  |  |  |  |  |  | 0.507 | 0.596 | 0.645 | 0.669 | 0.978 | 0.881 | 1.05 | 1.05
10 | NCI-H1623 | 0.46 | 0.341 | 0.601 | 0.45 | 0.406 |  |  |  |  |  |  |  |  |  |  |  |  | 
11 | NCI-H1648 | 0.456 | 0.405 | 0.43 | 0.601 | 0.383 |  | 0.761 |  | 0.412 | 0.642 | 0.491 | 0.527 | 0.448 | 0.422 |  |  |  | 
12 | NCI-H1793 | 0.316 | 0.317 | 0.328 | 0.327 | 0.352 | 1.05 |  | 0.885 | 0.987 | 0.784 | 0.37 | 0.477 | 0.521 | 0.358 |  |  |  | 
13 | NCI-H1703 |  |  |  |  |  |  |  |  |  |  |  |  |  |  | 0.853 | 0.712 | 0.978 | 0.103
